Results on 57 molecules are retold here after ChEMBL document CHEMBL1201862, “PubChem BioAssay data set” (2004).

Values joined by “and” are separate entries in the source; they are usually repeats but may differ in a detail not shown here. Equal values may be shown once. Active and inactive are the calls of the source.

The nature of one data set: cells. The class given is functional.
The target in a further data set is Cytochrome P450 2D6 (Homo sapiens, UniProt P10635).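 Also: CYP2D6 member of a cytochrome P450 panel assay.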
For a further data set, the target named is Cytochrome P450 2C19 (Homo sapiens, UniProt P33261). Kind of data set: Cytochrome panel assay with activity outcomes. Panel member name: p450-cyp2c19 Compounds with AC50 equal or less than 10 uM are considered active. The format is functional.
Another data set has as its target Cytochrome P450 3A4 (Homo sapiens, UniProt P08684).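 Also: CYP3A4 tested as one member of a cytochrome P450 panel screen.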
Data set [1] in a line: viability of uninfected HEp-2 cells – cell-based, HTS, cytotoxicity control for RSV inhibitor project, dose response (AID 2410). The format is functional. The following applies: human respiratory syncytial virus.
In another data set the target is T1, Cytochrome P450 1A2 (Homo sapiens, UniProt P05177).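 Also: PubChem cytochrome P450 panel assay, CYP1A2 panel member.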
T1 sequence (P05177 whole entry): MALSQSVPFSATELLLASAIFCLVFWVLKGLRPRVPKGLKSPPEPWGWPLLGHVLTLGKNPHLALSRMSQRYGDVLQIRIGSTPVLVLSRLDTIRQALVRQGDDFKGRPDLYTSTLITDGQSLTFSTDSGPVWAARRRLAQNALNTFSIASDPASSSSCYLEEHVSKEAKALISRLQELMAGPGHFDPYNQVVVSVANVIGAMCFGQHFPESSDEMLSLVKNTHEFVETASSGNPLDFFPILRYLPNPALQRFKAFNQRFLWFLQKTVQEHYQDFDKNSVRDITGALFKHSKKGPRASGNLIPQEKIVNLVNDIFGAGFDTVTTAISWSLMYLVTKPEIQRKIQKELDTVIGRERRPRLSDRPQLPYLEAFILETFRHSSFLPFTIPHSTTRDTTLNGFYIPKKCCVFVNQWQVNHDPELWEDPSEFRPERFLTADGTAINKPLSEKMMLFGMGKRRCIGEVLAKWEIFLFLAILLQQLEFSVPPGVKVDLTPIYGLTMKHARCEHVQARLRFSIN

A short description of data set [2]: Trypanosoma cruzi growth suppression in host cells – NIH3T3 host cells, beta-gal luminescence, confirmation (AID 2044).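 Also: intracellular parasites grown in NIH/3T3 mouse fibroblasts as host cells; luminescent beta-galactosidase reporter signal from transgenic T. cruzi replicating inside host cells; inhibitors lower the luminescence signal.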 The format is functional, cell-based.
Data set [3] can be described thus: NIH3T3 cell viability loss – ATP luminescence, mouse fibroblasts, counter-screen, dose response (AID 2010).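 Also: cells exposed to compound for about 90 hours before reading.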 The class given is functional, cell-based. To be noted: NIH3T3.
Data set [4] can be described thus: Luminescence Cell-Based Dose Response HTS to Identify Inhibitors of 5'UTR Stem-Loop Driven Prion Protein mRNA Translation in H4 Neuroglioblastoma Cells. [Related pubchem assays: 1827 (Project Summary), 1813 (Primary HTS)]. The format is functional.
Data set [5] can be described thus: alpha-synuclein stem-loop luciferase translation blockers – H4 neuroglioma cells, luminescence, confirmation (AID 1988). The format is functional, cell-based.

Sequence of Cytochrome P450 2C19 (P33261 whole entry): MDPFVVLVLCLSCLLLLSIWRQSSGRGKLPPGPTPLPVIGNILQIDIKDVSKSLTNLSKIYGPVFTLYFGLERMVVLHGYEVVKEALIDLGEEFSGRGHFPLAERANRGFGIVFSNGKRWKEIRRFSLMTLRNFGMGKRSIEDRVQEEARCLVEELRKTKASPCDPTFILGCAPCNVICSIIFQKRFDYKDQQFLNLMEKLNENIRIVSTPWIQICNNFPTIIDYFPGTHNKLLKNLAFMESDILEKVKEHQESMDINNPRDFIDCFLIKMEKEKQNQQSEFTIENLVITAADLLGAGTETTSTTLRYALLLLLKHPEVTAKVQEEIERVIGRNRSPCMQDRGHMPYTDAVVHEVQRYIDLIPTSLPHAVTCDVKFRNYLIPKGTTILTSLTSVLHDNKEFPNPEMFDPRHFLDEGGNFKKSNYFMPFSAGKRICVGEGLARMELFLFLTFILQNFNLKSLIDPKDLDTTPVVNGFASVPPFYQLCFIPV
Sequence of Cytochrome P450 3A4 (P08684 whole entry): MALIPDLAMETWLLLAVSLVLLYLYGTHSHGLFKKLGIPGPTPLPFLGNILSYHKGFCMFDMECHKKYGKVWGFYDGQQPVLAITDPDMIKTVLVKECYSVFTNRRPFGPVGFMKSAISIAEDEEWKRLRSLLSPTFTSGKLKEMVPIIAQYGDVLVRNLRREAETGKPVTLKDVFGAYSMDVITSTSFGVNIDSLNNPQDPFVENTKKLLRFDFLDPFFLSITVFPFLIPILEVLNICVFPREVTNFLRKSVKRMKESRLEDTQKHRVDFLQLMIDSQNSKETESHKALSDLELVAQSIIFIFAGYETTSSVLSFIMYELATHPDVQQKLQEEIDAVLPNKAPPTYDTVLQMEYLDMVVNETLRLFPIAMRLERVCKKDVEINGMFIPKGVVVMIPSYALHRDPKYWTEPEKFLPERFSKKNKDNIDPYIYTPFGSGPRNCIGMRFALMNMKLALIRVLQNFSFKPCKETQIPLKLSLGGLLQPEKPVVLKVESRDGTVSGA
Sequence of Cytochrome P450 2D6 (P10635 whole entry): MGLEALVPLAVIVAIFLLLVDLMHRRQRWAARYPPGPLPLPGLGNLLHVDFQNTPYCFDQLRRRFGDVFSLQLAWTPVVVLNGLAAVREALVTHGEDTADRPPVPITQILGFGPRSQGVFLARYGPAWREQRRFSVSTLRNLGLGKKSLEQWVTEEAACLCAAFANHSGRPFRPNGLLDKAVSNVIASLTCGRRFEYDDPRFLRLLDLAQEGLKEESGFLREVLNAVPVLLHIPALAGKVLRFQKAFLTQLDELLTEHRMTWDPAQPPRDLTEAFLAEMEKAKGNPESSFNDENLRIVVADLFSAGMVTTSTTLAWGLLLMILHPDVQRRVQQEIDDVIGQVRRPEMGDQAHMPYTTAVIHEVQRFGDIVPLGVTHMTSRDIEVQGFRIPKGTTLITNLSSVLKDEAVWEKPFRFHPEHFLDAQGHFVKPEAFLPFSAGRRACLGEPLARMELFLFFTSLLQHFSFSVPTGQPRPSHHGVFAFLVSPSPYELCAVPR

Regarding `COc1ccc2oc(=O)c(/C(C)=N/NC(=O)c3ccncc3)cc2c1`, the half-inhibitory concentration (IC50) (as a rule, the concentration that gives 50% inhibition) in the data set “cells” is 1.31 µM (active).
For `COc1cccc(NC(=S)N(CCc2nc3cc(C)c(C)cc3[nH]2)Cc2cccnc2)c1`, the concentration at half-maximal activity (AC50) (as a rule, the concentration giving half of the maximal activity seen) on Cytochrome P450 2D6 was 0.126 µM (inconclusive).
Take `CN(C)C(=O)c1ccc(-c2nccc(-n3ccnc3)n2)cc1`: the figures for the half-maximal activity concentration (AC50) on Cytochrome P450 2C19 (read-out: AC50), on Cytochrome P450 2D6 and on Cytochrome P450 3A4 were 39.8 µM (inconclusive), 39.8 µM (inconclusive) and 3.16 µM (inconclusive), respectively.
As for `CC1CCCC(NC(=O)c2nnc(O)c3ccccc23)C1C` (configuration not stated), the AC50 on Cytochrome P450 2C19 (read-out: AC50) was 20 µM (inconclusive).
For `COc1ccccc1CCn1c(=O)c(CCc2ccccc2)nc2cncnc21`, the half-maximal activity concentration (AC50) at Cytochrome P450 2D6 is 25.1 µM (inconclusive).
Take `CCN(CCCNC(=O)CNC(=O)c1nn(-c2ccc(OC)cc2)c(=O)c2ccccc12)c1cccc(C)c1`: the CC50 (usually the concentration at which the toxic effect on the cells reaches its halfway point) in [1] was 46 µM (active).
Still for that read-out and setting: under `CCS(=O)(=O)Nc1ccc(C2=NN(C(=O)c3ccco3)C(c3cccc(F)c3)C2)cc1` (configuration not stated) stands 32.9 µM (active).
Regarding `Nc1nc(Br)c2c(F)cccc2c1-c1ccc(F)cc1`, the AC50 at Cytochrome P450 2C19 (read-out: AC50) was 1.12 µM (inconclusive).
`Cc1cc(C)nc(SCC(=O)Nc2ccccc2[N+](=O)[O-])n1`: the AC50 on Cytochrome P450 1A2 was 17.8 µM (inconclusive).
For the molecule `Cc1cccc(Cn2ccc(NC(=O)c3ccc4c(c3)OCO4)n2)c1`, the half-maximal inhibitory concentration (IC50) in the data set “cells” is 2.33 µM (active).
Take `CCc1cc2c(=O)c(-c3cnn(-c4ccccc4)c3)coc2c(CN2CCOCC2)c1O`: at Cytochrome P450 1A2, the concentration at half-maximal activity (AC50) was 15.8 µM (inconclusive).
Still for that read-out and setting: with `CC(C)(C(=O)c1cccnc1)c1cccnc1` [METYRAPONE] the figure was 12.6 µM (inconclusive).
On to `CCNCCCNCCCNCCCNCC` [BIS(ETHYL)NORSPERMINE], for which, on Cytochrome P450 2C19, the AC50 result was “inconclusive”.
With `C[C@H](CC(C#N)(c1ccccc1)c1ccccc1)N1CCCCC1`, the AC50 on Cytochrome P450 2C19 (read-out: AC50) was 1.58 µM (inconclusive); at Cytochrome P450 3A4, 3.98 µM (inconclusive).
With `CC[C@H]1C2=C3C(CC[C@H]4C(OCc5ccc(F)cc5C(F)(F)F)OC[C@](C)([C@@H]34)N(C(=O)OC(C)(C)C)C2)C(COC)C1COC` (some centres not stated), on Cytochrome P450 3A4, the AC50 was 10 µM (inconclusive).
Turning to `NCCCP(=O)(O)O`, at Cytochrome P450 3A4, the concentration at half-maximal activity (AC50) is 0.158 µM (inconclusive).
Regarding `COc1cccc(C(=O)OCC(=O)c2ccc(Br)s2)c1OC`, the half-maximal inhibitory concentration (IC50) in the data set “cells” was 29.7 µM (active).
With `N#Cc1ccccc1-c1ccc2ncnc(N3CCNCC3)c2c1`, the AC50 on Cytochrome P450 3A4 was 31.6 µM (inconclusive).
In the case of `COc1ccc(S(=O)(=O)N2CC3C4C=CC(C4)C3C2)cc1` (configuration not stated), the concentration at half-maximal activity (AC50) at Cytochrome P450 2D6 is 15.8 µM (inconclusive).
As to `N#Cc1cc(-c2ccccc2)cnc1Sc1ccc(Cl)cc1`, the concentration at half-maximal activity (AC50) on Cytochrome P450 2D6 was 10 µM (inconclusive); at Cytochrome P450 3A4, 12.6 µM (inconclusive).
Regarding `C1=NCCc2c1[nH]c1ccccc21.[O-][Cl+3]([O-])([O-])O`, the CC50 in data set [1] was 10.3 µM (active).
Regarding `CCCOc1ccccc1C1CC(=O)NC(C)=C1C(=O)OCC(C)C` (configuration not stated), the AC50 on Cytochrome P450 1A2 was 11.2 µM (inconclusive).
For the molecule `O=C(Cc1ccc(Br)cc1)Nc1ccccc1Sc1ccccc1`, the half-maximal activity concentration (AC50) at Cytochrome P450 2D6 is 11.2 µM (inconclusive).
In the case of `COc1cc(-c2nnc(SCC(=O)Nc3ccc4c(c3)OCCO4)o2)cc(OC)c1OC`, at Cytochrome P450 1A2, the AC50 was 15.8 µM (inconclusive).
For `COC(=O)c1nn(-c2ccc(OC)cc2)c(=O)cc1Oc1cccc(Cl)c1`, at Cytochrome P450 3A4, the concentration at half-maximal activity (AC50) was 39.8 µM (inconclusive).
As for `Cc1ccc(S(=O)(=O)Nc2cccc(-c3ccc(N4CCCCCC4)nn3)c2)cc1C`, the CC50 in data set [1] is 25.8 µM (active).
Still for that read-out and setting: with `CCOc1cc2c(cc1OCC)-n1cccc1C(c1cc(OC)ccc1F)NC2` (configuration not stated) the figure was 39.8 µM (active).
Take `COc1ccc(-n2c(=O)c(-c3cccc(Cl)c3)nc3cncnc32)cc1`: on Cytochrome P450 2C19 (read-out: AC50), the AC50 is 39.8 µM (inconclusive).
Turning to `Cn1c(=O)c(-c2ccccc2)nc2cnc(Nc3ccccc3)nc21`, the AC50 on Cytochrome P450 2C19 (read-out: AC50) was 0.0398 µM (inconclusive).
With `Cn1cccc1CNCCc1ccccc1`, the AC50 on Cytochrome P450 2C19 (read-out: AC50) is 14.1 µM (inconclusive); at Cytochrome P450 3A4 it was 31.6 µM (inconclusive).
As to `CCN(CC)CCOC(=O)c1ccc(N)cc1` [PROCAINE], at Cytochrome P450 2D6, the AC50 is 10 µM (inconclusive) and 39.8 µM (inconclusive).
Same read-out and setting: with `CN(C)c1ncc2ncc(=O)n(C)c2n1` the figure was 20 µM (inconclusive).
In the case of `N[C@@H](Cc1c[nH]cn1)C(=O)O` [HISTIDINE], the concentration at half-maximal activity (AC50) on Cytochrome P450 3A4 is 0.794 µM (inconclusive).
Turning to `CC(=O)Nc1cccc(-c2csc(Nc3ccc(Cl)cn3)n2)c1`, in data set [1], the CC50 was 9.11 µM (active).
As for `CC(C)OC(=O)COc1ccc(-c2ccccc2)cc1`, in the data set “cells”, the IC50 was 6.13 µM (active).
With `Cc1ccc(C2(C(F)(F)F)N=C3Sc4cc(C)cc(C)c4N3C(=O)N2)cc1` (configuration not stated), the CC50 in data set [1] was 23 µM (active).
For the molecule `Cc1c(/C=N/CCOCc2ccccc2)cnn1C`, the AC50 at Cytochrome P450 2C19 (read-out: AC50) is 22.4 µM (inconclusive); on Cytochrome P450 2D6 it was 25.1 µM (inconclusive).
For `CCCCC(=O)Nc1ccc(C(=O)OC2CCCCC2)cc1`, in data set [1], the CC50 is 22.8 µM (active).
For the molecule `Cc1cnc(CNc2ccnc(-c3c(C)noc3C)n2)cn1`, the half-maximal activity concentration (AC50) on Cytochrome P450 3A4 was 10 µM (inconclusive).
`CN(C)c1ncnc2ccc(-c3ccoc3)cc12`: the concentration at half-maximal activity (AC50) at Cytochrome P450 2C19 (read-out: AC50) was 39.8 µM (inconclusive); at Cytochrome P450 3A4, 12.6 µM (inconclusive).
Consider `c1ccc(-c2cccc(N3CC[C@@]4(CCCNC4)C3)c2)cc1`, for which the AC50 on Cytochrome P450 3A4 is 15.8 µM (inconclusive).
`COc1ccc(C(C(=O)NC2CCCCC2)N(C(=O)Cc2c[nH]c3ccccc23)c2ccccc2)cc1OC` (configuration not stated): the cytotoxic concentration (CC50) in data set [1] is 27.2 µM (active).
Same read-out and setting: under `Cc1cc(O)c(NC(=O)c2cc([N+](=O)[O-])ccc2Cl)cc1C` stands 23.3 µM (active).
On to `CCN(c1ccccc1)S(=O)(=O)c1ccc(OC)c(NC(=O)CNCCc2ccccc2)c1`, for which the cytotoxic concentration (CC50) in data set [1] is 14.4 µM (active). Also, the EC50 (in general, the concentration that produces a half-maximal response) in data set [2] is 1.72 µM (active); in data set [3], > 60 µM (not active).
With `CN1CCN(C(=O)CCCN2C(=O)/C(=C/c3ccc(Cl)cc3)SC2=S)CC1`, the half-maximal cytotoxic concentration (CC50) in data set [1] is 13.5 µM (active).
In the case of `Cc1ccccc1-c1nc(NC2CC2)c2ccccc2n1`, on Cytochrome P450 2D6, the half-maximal activity concentration (AC50) was 39.8 µM (inconclusive).
On the same count and under the same terms, under `CNC(=O)C(=O)NCCc1ccc(Cl)cc1` stands 28.2 µM (inconclusive).
Consider `COc1cc2nc3c(c([Si](C)(C)C(C)(C)C)c2cc1OC)Cn1c-3cccc1=O`, for which the concentration at half-maximal activity (AC50) on Cytochrome P450 2C19 (read-out: AC50) is 39.8 µM (inconclusive).
For the molecule `CNc1ncncc1-c1ccc(C(=O)N(C)C)cc1`, on Cytochrome P450 1A2, the half-maximal activity concentration (AC50) was 15.8 µM (inconclusive).
Take `CCCOc1ccc(N2CC(C(=O)Nc3ccccc3F)CC2=O)cc1` (configuration not stated): in the data set “cells”, the concentration for half-maximal inhibition (IC50) was 32.1 µM (active).
Turning to `CCCCOc1ccc(-c2cn3ccccc3n2)cc1[N+](=O)[O-]`, the CC50 in data set [1] was 38.7 µM (active).
Consider `CC1CCN(C(=O)c2ccc(-c3ccccc3Cl)o2)CC1`, for which the IC50 in “cells” was 33.8 µM (active).
As to `COc1ccccc1CN1CCCC2(CCN(C(=O)c3ccco3)CC2)C1`, the AC50 on Cytochrome P450 3A4 was 25.1 µM (inconclusive).
On to `O=c1c(-c2ccc(Cl)cc2)nc2cnc(N3CCOCC3)nc2n1C1CC1`, for which, on Cytochrome P450 1A2, the concentration at half-maximal activity (AC50) was 1.26 µM (inconclusive).
Regarding `COc1ccc(/C=C/C(=O)Nc2cccc(S(=O)(=O)NC3=NCCCCC3)c2)cc1`, the CC50 in data set [1] is 27.9 µM (active).
For `CC(C)(C)NC(=O)c1ccc(NC(=O)c2ccccc2-c2ccccc2C(=O)O)cc1`, the half-inhibitory concentration (IC50) in the data set “cells” was 6.42 µM (active).
On to `CC(=O)c1ccc(N=Nc2ccc(N(C)C)cc2)cc1`, for which the half-maximal effective concentration (EC50) was 4.44 µM (active) in data set [4] and 4.11 µM (inconclusive) in data set [5].
